Results taken from patent publication US20220402980A1, “CHROMOGRANIN A-DERIVED PEPTIDES AND USES THEREOF” (OSPEDALE SAN RAFFAELE S.R.L., priority 2019, published 2022).
Where two headings read alike, the source gives them in different places. Where no end group is shown, it is not given here.

What was measured:
BxPC-3 cells = test: Binding of peptide-IRDye conjugates to cultured BxPC-3 cells; assay type: cell-based, human; details: BxPC-3 (αvβ6+ αvβ8-), 1 h at 37° C.
Protocol: (§1) B) Binding of the indicated peptide-IRDye conjugates to the various cell lines. Various amounts of conjugates were added to cell monolayers (grown in 96-well microtiter plates) and incubated for 1 h at 37° C., 5% CO2 (see Experimental section). After washing, bound fluorescence was measured using an Odyssey CLx (LI-COR) scanner. A representative image of the scanned plate and binding quantification are reported. Mean ±SE of quadruplicate wells.
(§2) Various amounts of unlabeled peptides were mixed 5a-IRDye (4 nM) and added to the cells. After 1 h, the plates were washed, and the bound fluorescence was quantified as described above (left panels).
(§3) The binding of peptide-IRDye conjugates to BxPC-3, 5637, HUVECs, 4T1, K8484 and DT6606 cells was analyzed as follows. The cells were grown in 96-well clear-bottom black microtiterplates (Corning® cat. 3603, 2-3x10^4 cells/well, plated 48 h before the experiment). After washing twice with 0.9% sodium chloride solution, the cells were incubated with 25 mM Hepes buffer, pH 7.4, containing 150 mM sodium chloride, 1 mM magnesium chloride, 1 mM manganese chloride and 1% BSA (binding buffer) for 5 min. Peptide-IRDye conjugates (0.013-40 nM in binding buffer) were then added to the cells and left to incubate for 1 h at 37° C., 5% CO2. After three washings with binding buffer (5 min each, 200 al/well), the cells were fixed with PBS containing 2% paraformaldehyde and 3% sucrose for 15 min at room temperature. Binding of conjugates to cells was quantified by scanning the plate (filled with PBS, 100 al/well) with the Odyssey CLx (LI-COR) using the following settings: scan intensity, 8.5; scan focus offset 4; scan quality, highest; channel, 800; resolution, 169 pm. Then, the plates were incubated with 5 μg/ml of 4′,6-diamidino-2-phenylindole (DAPI) for 15 min, washed twice with PBS and read with a VICTOR3 plate reader (Perkin Elmer, Waltham, Mass., USA) to quantify the cell number in each well, using the following filters: excitation, 355±40 nm; emission, 460±25 nm (acquisition,1 s).

5637 cells [1] = test: Binding of peptide-IRDye conjugates to cultured 5637 cells; assay type: cell-based, human; details: 5637 (αvβ6+ αvβ8+), 1 h at 37° C.
Protocol: as §1, §2, §3

αvβ6 [2] = target: T1, αvβ6 (Homo sapiens, UniProt P06756+P18564); test: Direct binding of peptide-IRDye conjugates to αvβ6-coated microtiter plates; details: purified integrin
T1 construct: recombinant human αvβ6 extracellular domain (R&D Systems); purchased R&D Systems (Minneapolis, Minn.)
Protocol: (§4) Binding of 5a-IRDye and 2a-IRDye to microtiterplates coated with or without αvβ6 or αvβ8 as indicated in each panel. Various amounts of conjugates were added to microtiterplates and incubated for 1 h at room temperature (see Experimental section). After washing, bound fluorescence was measured using an Odyssey CLx (LI-COR) scanner. Representative images of the scanned plate and quantification of the binding are reported. Mean ±SE of triplicates. Effective concentration 50 (EC50, mean±SD) of the indicated number of independent experiments is shown.
(§5) Binding of 5a-IRDye, 2a-IRDye and Cys-IRDye to αvβ6 and αvβ8 was determined by direct binding assays as follows: 96-well clear-bottom black microtiterplates (Corning® cat. 3601) were coated with 4 μg/ml αvβ6 or αvβ8, in Dulbecco's phosphate-buffered saline with Ca2+ and Mg2+(DPBS, 50 ul/well) and left to incubate over-night at 4° C. […] The bound fluorescence was then quantified by scanning the empty plates with an Odyssey CLx near-infrared fluorescence imaging system (LI-COR) using the following settings: scan intensity, 8.5; scan focus offset, 3; scan quality, highest; channel, 800; resolution, 169 pm.

αvβ8 [3] = target: T2, αvβ8 (Homo sapiens, UniProt P06756+P26012); test: Direct binding of peptide-IRDye conjugates to αvβ8-coated microtiter plates; details: purified integrin
Protocol: as §4, §5

[4] = system: subcutaneous BxPC-3 tumors; details: mouse, in vivo
in vivo = details: female, NSG, mouse, iv, 1.28 nmol
HUVEC = test: Binding of peptide-IRDye conjugates to cultured HUVEC; assay type: cell-based, human; details: HUVEC (lacking these integrins)
Protocol: as §1
The binding of peptide-IRDye conjugates to BxPC-3, 5637, HUVECs, 4T1, K8484 and DT6606 cells was analyzed as follows. The cells were grown in 96-well clear-bottom black microtiterplates (Corning® cat. 3603, 2-3x10^4 cells/well, plated 48 h before the experiment). […] Binding of conjugates to cells was quantified by scanning the plate (filled with PBS, 100 al/well) with the Odyssey CLx (LI-COR) using the following settings: scan intensity, 8.5; scan focus offset 4; scan quality, highest; channel, 800; resolution, 169 pm. Then, the plates were incubated with 5 μg/ml of 4′,6-diamidino-2-phenylindole (DAPI) for 15 min, washed twice with PBS and read with a VICTOR3 plate reader (Perkin Elmer, Waltham, Mass., USA) to quantify the cell number in each well, using the following filters: excitation, 355±40 nm; emission, 460±25 nm (acquisition,1 s).

5637 cells [5] = test: Binding assay of 5-Qdot to human 5637 cells (FACS, fluorescence microscopy); assay type: cell-based; details: flow cytometry and fluorescence microscopy
Protocol: FIG. 3. Binding of CgA-derived peptides to human bladder cancer 5637 cells. a) Effect of 1, 4, 5 and 6 on the binding of anti-αvβ6 mAb 10D5 to 5637 cells. Antibody binding quantification as determined by flow cytometry analysis (FACS) (see also FIG. 11A). Compounds were mixed with mAb 10D5 and added to cells; mAb binding was detected by FACS and inhibitory concentration (IC50, mean±SEM) was determined. Each point is in duplicate. b) Binding of 5-Qdot or *Qdot (control) to 5637 cells as measured by FACS. Representative FACS (left and middle) and quantification of Qdot binding (right) (circles: mean±SD of duplicates). c) Representative fluorescence bioimaging of 5637 cells incubated with 5-Qdot, *Qdot or diluent. […]
Binding assays of 5-Qdot and *Qdot to 5637 cells were carried out as follows: 5637 cells were grown in chamber slides (6×10^4 cells/well). […] The cells were washed again with binding buffer, fixed with paraformaldehyde for 20 min, counterstained with DAPI (0.05 μg/ml, Invitrogen), and analyzed using a fluorescence microscopy (Carl Zeiss, Axioscop 40FL; excitation, filter, BP 560/40 nm; beam splitter filter, FT 585 nm; emission filter, 630/75 nm). […] After washing with 25 mM Hepes buffer, pH 7.4, containing 150 mM NaCl, 1 mM MgCl2, 1 mM MgCl2, the cells were fixed with formaldehyde and analyzed using the CytoFLEX S (Beckman Coulter).

αvβ8 [6] = target: T2, αvβ8; details: Table 3a; Ki of 2 as determined in [21]; cited from earlier work
α5β1 = target: T3, α5β1 (Homo sapiens, UniProt P05556+P08648); details: Table 3a; Ki of 2 as determined in [21]; cited from earlier work
T3 construct: purchased Immunological Sciences (Rome, Italy)

αvβ5 = target: T4, αvβ5 (Homo sapiens, UniProt P06756+P18084); details: Table 3a; Ki of 2 as determined in [21]; cited from earlier work
T4 construct: purchased Immunological Sciences (Rome, Italy)

αvβ6 [7] = target: T1, αvβ6; test: Competitive integrin binding assay (isoDGR/STV-HRP probe), αvβ6-coated plates; details: non-stapled control peptide with RGE
Protocol: (§6) Peptide binding was measured by a competitive binding assay using as integrin probe a complex made by a N-terminal acetylated isoDGR peptide biotinylated at the E-amino group of the lysine, acetyl-Ciso[…]-bio (SEQ ID No. 29), and a streptavidin-peroxidase conjugate (called isoDGR/STV-HRP)[43].
(§7) Each mixture was then added to integrin-coated wells and left to incubate for 2 h at room temperature. After washing with 25 mM Tris-HCl, pH 7.4, containing 150 mM sodium chloride, 1 mM magnesium chloride, 1 mM manganese chloride, each well was filled with a chromogenic solution (o-phenylenediamine dihydrochloride) and left to incubate for 30 min at room temperature. The chromogenic reaction was stopped by adding 1 N sulfuric acid. The absorbance at 490 nm was then measured using a microtiterplate reader. Ki values were calculated by non-linear regression analysis of competitive binding data using the “One site - Fit Ki” equation of the GraphPad Prism Software using the Kd values of the probe indicated above.

αvβ8 [8] = target: T2, αvβ8; test: Competitive integrin binding assay (isoDGR/STV-HRP probe), αvβ8-coated plates; details: non-stapled control peptide with RGE
Protocol: as §6, §7

αvβ3 = target: T5, αvβ3 (Homo sapiens, UniProt P05106+P06756); details: Table 3a; Ki of 2 as determined in [21]; cited from earlier work
T5 construct: purchased Immunological Sciences (Rome, Italy)

αvβ6 [9] = target: T1, αvβ6; details: cited from earlier work

T1 sequence (P06756 31-992 limits assumed): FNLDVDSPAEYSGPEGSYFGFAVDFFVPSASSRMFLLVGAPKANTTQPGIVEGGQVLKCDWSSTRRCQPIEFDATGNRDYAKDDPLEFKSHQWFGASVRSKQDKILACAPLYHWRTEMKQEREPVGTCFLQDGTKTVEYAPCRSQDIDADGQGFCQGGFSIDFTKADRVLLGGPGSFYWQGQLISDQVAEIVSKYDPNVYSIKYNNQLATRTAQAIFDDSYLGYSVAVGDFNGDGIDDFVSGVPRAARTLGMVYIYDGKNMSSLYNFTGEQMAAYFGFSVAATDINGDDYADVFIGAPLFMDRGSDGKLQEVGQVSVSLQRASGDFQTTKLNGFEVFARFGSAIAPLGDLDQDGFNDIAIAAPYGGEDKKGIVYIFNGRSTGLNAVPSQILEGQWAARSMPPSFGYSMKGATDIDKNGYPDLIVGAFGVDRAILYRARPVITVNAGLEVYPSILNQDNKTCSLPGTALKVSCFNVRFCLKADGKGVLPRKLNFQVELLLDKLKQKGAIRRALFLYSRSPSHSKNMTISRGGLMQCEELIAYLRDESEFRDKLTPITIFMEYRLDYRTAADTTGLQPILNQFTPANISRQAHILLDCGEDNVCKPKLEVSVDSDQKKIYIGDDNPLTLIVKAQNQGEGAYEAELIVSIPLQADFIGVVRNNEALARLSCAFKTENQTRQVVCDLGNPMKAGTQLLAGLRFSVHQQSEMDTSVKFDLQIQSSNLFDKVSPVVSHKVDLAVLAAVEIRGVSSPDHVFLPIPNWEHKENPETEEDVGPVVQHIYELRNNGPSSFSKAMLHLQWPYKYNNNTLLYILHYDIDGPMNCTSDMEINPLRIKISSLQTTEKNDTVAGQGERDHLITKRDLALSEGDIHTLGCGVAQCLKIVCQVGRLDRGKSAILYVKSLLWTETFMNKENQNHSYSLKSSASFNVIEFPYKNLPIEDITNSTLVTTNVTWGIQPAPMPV
T1 sequence (P18564 22-709 limits assumed): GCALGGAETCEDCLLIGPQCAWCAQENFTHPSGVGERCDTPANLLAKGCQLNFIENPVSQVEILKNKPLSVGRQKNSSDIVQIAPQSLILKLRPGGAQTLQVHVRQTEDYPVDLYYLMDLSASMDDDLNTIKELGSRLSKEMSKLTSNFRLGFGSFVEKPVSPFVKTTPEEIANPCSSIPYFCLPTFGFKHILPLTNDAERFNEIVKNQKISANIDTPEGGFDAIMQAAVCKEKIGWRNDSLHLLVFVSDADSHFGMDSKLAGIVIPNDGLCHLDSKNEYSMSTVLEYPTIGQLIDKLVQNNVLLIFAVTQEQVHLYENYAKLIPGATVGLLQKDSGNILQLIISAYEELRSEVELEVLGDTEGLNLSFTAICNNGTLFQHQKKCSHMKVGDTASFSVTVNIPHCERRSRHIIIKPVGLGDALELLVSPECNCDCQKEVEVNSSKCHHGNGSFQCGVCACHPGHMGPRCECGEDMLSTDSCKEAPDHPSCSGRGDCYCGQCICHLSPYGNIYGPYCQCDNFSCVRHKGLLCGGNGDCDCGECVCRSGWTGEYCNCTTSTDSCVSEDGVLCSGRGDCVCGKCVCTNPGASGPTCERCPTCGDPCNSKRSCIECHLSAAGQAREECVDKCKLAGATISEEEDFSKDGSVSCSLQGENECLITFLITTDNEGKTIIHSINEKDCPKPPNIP
T2 sequence (P06756 31-992 limits assumed): as the sequence (P06756 31-992 limits assumed) above
T2 sequence (P26012 43-684 limits assumed): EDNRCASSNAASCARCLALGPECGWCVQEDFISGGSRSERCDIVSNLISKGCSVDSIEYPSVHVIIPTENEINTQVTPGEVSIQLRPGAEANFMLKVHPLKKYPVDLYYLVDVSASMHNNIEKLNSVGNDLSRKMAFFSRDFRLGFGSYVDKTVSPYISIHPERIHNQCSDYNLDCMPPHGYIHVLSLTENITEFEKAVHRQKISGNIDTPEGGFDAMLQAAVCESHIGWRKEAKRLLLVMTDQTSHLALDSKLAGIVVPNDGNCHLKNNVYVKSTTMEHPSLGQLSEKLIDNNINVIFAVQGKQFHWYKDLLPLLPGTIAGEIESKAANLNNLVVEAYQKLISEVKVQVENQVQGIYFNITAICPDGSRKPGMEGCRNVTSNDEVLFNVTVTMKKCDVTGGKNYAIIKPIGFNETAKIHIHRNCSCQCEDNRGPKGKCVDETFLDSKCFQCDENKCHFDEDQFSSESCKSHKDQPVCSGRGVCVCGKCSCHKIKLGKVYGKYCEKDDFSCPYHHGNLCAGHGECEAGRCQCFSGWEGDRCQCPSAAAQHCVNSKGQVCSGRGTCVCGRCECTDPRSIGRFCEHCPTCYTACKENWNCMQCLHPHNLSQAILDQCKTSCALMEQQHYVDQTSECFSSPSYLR
T3 sequence (P08648 42-894 limits assumed): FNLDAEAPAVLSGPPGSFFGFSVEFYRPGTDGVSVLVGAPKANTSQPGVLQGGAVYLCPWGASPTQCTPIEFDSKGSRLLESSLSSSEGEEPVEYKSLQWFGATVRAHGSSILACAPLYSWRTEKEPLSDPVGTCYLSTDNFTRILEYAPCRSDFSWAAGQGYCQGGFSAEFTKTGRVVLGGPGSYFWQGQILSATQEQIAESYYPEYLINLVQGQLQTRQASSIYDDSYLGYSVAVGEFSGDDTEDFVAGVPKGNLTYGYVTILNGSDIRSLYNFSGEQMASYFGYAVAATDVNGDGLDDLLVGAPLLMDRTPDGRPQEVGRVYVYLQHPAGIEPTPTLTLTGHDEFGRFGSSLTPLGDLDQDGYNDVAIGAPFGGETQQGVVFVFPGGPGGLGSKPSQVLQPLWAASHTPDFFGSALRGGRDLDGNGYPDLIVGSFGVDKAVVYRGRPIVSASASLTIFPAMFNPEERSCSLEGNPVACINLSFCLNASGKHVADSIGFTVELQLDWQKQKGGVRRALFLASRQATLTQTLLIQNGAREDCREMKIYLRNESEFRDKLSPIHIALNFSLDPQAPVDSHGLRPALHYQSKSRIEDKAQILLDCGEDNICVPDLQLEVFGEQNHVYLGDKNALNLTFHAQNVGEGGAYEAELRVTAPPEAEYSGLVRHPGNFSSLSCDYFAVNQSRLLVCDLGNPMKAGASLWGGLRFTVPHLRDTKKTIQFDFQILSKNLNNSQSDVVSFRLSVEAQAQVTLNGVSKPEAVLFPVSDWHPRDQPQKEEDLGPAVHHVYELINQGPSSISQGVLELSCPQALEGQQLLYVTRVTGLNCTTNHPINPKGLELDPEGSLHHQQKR
T3 sequence (P08648 895-1049 partner limits assumed): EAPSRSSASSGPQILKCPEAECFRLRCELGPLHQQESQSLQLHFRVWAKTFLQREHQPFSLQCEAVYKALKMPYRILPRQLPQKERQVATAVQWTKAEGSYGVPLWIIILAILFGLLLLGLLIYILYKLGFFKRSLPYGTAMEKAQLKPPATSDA
T3 sequence (P05556 21-798): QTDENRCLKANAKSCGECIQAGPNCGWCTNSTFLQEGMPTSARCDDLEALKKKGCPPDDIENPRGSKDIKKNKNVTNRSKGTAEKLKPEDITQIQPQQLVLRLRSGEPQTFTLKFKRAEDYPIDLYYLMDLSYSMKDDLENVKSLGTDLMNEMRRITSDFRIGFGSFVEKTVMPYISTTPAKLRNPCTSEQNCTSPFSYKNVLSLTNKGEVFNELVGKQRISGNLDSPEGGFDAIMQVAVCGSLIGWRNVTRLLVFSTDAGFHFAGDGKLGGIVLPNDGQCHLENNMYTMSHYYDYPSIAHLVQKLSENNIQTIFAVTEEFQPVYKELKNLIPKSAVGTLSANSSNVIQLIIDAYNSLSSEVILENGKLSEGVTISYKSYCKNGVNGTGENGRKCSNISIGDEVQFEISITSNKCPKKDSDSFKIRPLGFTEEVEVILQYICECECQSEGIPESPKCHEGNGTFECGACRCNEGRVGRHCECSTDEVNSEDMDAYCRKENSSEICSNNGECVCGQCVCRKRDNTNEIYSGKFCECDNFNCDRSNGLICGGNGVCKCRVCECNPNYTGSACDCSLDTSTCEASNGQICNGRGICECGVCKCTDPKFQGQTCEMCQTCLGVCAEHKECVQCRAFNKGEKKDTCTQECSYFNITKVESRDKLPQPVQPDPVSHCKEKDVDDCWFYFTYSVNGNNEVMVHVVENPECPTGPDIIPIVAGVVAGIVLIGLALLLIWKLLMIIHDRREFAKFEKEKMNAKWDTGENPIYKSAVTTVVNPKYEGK

Which “binding of conjugate to cells” value (BxPC-3 cells) does the source give for “2a-IRDye: control peptide 2a coupled via Cys to maleimide-IRDye 800CW (C(maleimide‑IRDye 800CW)FETLRGEERILSILRHQNLLKELQD) [reference compound]” here?
Its value is “not”.

And the “binding of conjugate to cells” value (5637 cells [1])?
The value was “not”.

What about the “binding to αvβ6-coated plates” value (αvβ6 [2]) of the same compound?
Its value is “not”.

And the “binding to αvβ8-coated plates” value (αvβ8 [3])?
The value was “not”.

Which “binding of conjugate to cells” value (BxPC-3 cells) does the source give for `CC[C@H](C)[C@H](NC(=O)[C@H](CCCNC(=N)N)NC(=O)[C@H](CC(C)C)NC(=O)[C@H](CC(=O)O)NC(=O)CNC(=O)[C@H](CCCNC(=N)N)NC(=O)[C@H](CC(C)C)NC(=O)[C@@H](NC(=O)[C@H](CCC(=O)O)NC(=O)[C@H](Cc1ccccc1)NC(=O)[C@@H](N)CSC1CC(=O)N(CCNC(=O)CCCCCN2C(=CC=C3CCCC(C=CC4=[N+](CCCCS(=O)(=O)[O-])c5ccc(S(=O)(=O)O)cc5C4(C)C)=C3Oc3ccc(S(=O)(=O)O)cc3)C(C)(C)c3cc(S(=O)(=O)O)ccc32)C1=O)[C@@H](C)O)C(=O)N[C@@H](CC(C)C)C(=O)N[C@@H](CO)C(=O)N[C@H](C(=O)N[C@@H](CC(C)C)C(=O)N[C@@H](CCCNC(=N)N)C(=O)N[C@H]1Cc2cn(nn2)CCCC[C@@H](C(=O)N[C@@H](CCCCN)C(=O)N[C@@H](CCC(=O)O)C(=O)N[C@@H](CC(C)C)C(=O)N[C@@H](CCC(N)=O)C(=O)N[C@@H](CC(=O)O)C(N)=O)NC(=O)[C@H](CC(C)C)NC(=O)[C@H](CC(N)=O)NC(=O)[C@H](CCC(N)=O)NC1=O)[C@@H](C)CC` (stereo partly shown) [5a-IRDye] here?
Its value is “could bind, in a dose dependent manner”.

What about the “binding of conjugate to cells” value (5637 cells [1]) of the same compound?
The value was “could bind, in a dose dependent manner”.

What about the “tumor signal twenty-four hours after injection” value [4] of the same compound?
Its value is “significant signal was still visible”.

And the “time of maximal tumor uptake after injection” value ([4]; iv)?
The value was 1 h.

And the tissue to tissue ratio at 24 h (in vivo)?
The tissue to tissue ratio at 24 h was 12.

What about the “binding of conjugate to cells” value (HUVEC) of the same compound?
Its value is “little or not”.

Which “binding of Qdot conjugate to cells” value (5637 cells [5]) does the source give for “*Qdot: control nanoconjugate without the targeting ligand; Qdot coupled to control peptide cyclic head-to-tail c(CGARAG) (cyclo(CGARAG); also: coupled to Qdot (control nanoconjugate)) [reference compound]” here?
Its value is “not”.

For FETLRGEERILSILRHQNLLKELQD [peptide 2], which Ki (αvβ8 [6]) is on record?
The Ki was greater than 50 µM.

What about the Ki (α5β1) of the same compound?
The Ki was greater than 50 µM.

What about the Ki (αvβ5) of the same compound?
The Ki was greater than 50 µM.

And the “binding to αvβ6” value (αvβ6 [7])?
Its value is “unable to bind these integrins”.

And the “binding to αvβ8” value (αvβ8 [8])?
The value was “unable to bind these integrins”.

And the Ki (αvβ3)?
Its Ki is greater than 50 µM.

What about the Ki (αvβ6 [9]; Table 3a, Ki of 2 as determined in [21], read-out: Ki αvβ6) of the same compound?
The Ki was greater than 50 µM.

What about the Ki (αvβ6 [9]; peptide with RGE instead of RGD, read-out: Ki) of the same compound?
The Ki was greater than 50 µM.
